Source: article PMC3914206

Key:
Format in all cases: binding
Parameters in all cases: KINOMEscan: ABL1(F317L)-phosphorylated / KINOMEscan: ABL1(H396P)-nonphosphorylated / KINOMEscan: ABL1(H396P)-phosphorylated / KINOMEscan: ABL1(M351T)-phosphorylated / KINOMEscan: ABL1(T315I)-phosphorylated / KINOMEscan: ABL1-nonphosphorylated / KINOMEscan: ABL1-phosphorylated / KINOMEscan: ACVR2A / KINOMEscan: ACVR2B / KINOMEscan: ADCK3 / KINOMEscan: ADCK4 / KINOMEscan: AKT1 / KINOMEscan: AKT3 / KINOMEscan: ALK / KINOMEscan: ARK5 / KINOMEscan: AURKA / KINOMEscan: AURKC / KINOMEscan: BIKE / KINOMEscan: BMPR1A / KINOMEscan: BMPR1B / KINOMEscan: BMX / KINOMEscan: BRK / KINOMEscan: BRSK1 / KINOMEscan: BRSK2 / KINOMEscan: CAMK1 / KINOMEscan: CAMK1D / KINOMEscan: CAMK1G / KINOMEscan: CAMK2A / KINOMEscan: CAMK2B / KINOMEscan: AAK1 / KINOMEscan: CAMK2D / KINOMEscan: CAMK2G / KINOMEscan: ABL1(F317I)-nonphosphorylated / KINOMEscan: ABL1(F317I)-phosphorylated / KINOMEscan: ABL1(F317L)-nonphosphorylated: unit: % Ctrl
Conditions in all cases: Compound Concentration 10 µM
[1] = molecular target: T1, panel of 442 kinases (Mycobacterium tuberculosis, UniProt P9WI81)
T1 construct: purchased KINOMEscan
Excerpt: (§1) We assessed the selectivity of members of this scaffold using the KINOMEscan methodology across a near comprehensive panel of 442 kinases [[18,27]].

[2] = molecular target: T2, panel of 442 kinases (Homo sapiens, UniProt Q15831)
T2 construct: purchased KINOMEscan
T2 sequence (Q15831 1-433): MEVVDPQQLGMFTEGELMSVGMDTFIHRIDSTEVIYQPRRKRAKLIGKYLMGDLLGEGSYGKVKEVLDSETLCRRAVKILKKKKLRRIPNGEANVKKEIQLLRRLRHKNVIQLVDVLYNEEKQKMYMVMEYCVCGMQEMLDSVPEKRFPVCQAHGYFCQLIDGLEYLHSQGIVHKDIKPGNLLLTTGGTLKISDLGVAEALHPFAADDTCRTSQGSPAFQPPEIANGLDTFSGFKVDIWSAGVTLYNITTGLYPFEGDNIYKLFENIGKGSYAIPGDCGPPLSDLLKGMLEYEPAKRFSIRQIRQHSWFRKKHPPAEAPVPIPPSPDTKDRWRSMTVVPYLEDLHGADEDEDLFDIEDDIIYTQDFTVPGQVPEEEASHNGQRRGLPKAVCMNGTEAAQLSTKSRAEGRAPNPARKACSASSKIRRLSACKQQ
Excerpt: as §1

[3] = molecular target: T3, panel of 442 kinases (Homo sapiens, UniProt Q9NSY1)
T3 construct: purchased KINOMEscan
Excerpt: as §1

T3 sequence (Q9NSY1 whole entry): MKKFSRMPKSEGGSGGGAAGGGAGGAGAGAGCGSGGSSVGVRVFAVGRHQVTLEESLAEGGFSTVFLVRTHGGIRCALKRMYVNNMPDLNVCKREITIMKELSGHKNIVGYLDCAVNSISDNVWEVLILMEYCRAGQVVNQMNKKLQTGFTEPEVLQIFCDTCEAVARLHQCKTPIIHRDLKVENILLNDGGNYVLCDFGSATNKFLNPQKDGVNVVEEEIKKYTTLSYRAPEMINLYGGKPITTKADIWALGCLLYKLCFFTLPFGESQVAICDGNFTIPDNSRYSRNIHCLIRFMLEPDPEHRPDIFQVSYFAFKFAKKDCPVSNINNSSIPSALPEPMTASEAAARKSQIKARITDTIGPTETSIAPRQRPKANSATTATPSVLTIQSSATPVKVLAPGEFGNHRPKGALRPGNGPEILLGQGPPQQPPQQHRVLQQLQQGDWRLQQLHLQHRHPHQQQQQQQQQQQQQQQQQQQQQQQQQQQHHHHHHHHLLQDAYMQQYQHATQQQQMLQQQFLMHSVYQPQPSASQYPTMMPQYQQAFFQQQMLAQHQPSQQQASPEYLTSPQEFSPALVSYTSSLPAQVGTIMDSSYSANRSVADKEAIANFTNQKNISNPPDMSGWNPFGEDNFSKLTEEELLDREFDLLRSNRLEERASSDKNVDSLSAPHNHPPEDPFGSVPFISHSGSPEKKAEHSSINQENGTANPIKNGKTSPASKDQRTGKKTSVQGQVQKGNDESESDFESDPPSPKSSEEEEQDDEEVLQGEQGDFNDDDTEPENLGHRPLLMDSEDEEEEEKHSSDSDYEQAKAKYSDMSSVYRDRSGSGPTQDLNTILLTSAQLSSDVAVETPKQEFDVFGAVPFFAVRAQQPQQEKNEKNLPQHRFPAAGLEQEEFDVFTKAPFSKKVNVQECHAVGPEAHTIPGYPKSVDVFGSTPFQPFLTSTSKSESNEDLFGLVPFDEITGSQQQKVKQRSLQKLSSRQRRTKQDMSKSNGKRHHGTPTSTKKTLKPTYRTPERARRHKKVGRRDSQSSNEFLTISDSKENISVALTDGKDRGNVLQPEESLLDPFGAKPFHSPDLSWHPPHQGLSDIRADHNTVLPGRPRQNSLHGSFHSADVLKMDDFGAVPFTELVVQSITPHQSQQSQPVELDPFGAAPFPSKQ
T1 sequence (P9WI81 whole entry): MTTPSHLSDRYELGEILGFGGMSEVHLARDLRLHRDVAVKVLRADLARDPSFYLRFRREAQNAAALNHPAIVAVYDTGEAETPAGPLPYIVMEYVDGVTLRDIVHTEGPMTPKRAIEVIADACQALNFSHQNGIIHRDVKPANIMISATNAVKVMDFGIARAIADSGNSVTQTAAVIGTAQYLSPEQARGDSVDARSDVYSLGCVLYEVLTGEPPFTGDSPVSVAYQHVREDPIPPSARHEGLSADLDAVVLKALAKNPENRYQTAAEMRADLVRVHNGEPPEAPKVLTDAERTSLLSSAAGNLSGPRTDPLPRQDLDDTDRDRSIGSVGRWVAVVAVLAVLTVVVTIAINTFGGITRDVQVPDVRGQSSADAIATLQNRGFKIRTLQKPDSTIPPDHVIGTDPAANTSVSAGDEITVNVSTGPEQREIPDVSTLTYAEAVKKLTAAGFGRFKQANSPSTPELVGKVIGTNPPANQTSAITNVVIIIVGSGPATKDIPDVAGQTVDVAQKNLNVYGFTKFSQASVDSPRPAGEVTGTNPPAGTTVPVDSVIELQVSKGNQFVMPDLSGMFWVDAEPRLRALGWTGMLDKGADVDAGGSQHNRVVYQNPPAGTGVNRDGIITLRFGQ

Compound: CCOc1cc(C(=O)N2CCC(N3CCN(C)CC3)CC2)ccc1Nc1ncc2c(n1)N(C1CCCC1)c1ccccc1C(=O)N2C [Compound 26]
- KINOMEscan: PKNB(M.tuberculosis) [1]: 96
- KINOMEscan: LKB1 [2]: 100
- KINOMEscan: BIKE [3]: 100

Compound: COc1cc(C(=O)N2CCC(N3CCN(C)CC3)CC2)ccc1Nc1ncc2c(n1)N1CCc3cccc(c31)C(=O)N2C [Compound 24]
- KINOMEscan: PKNB(M.tuberculosis) [1]: 98
- KINOMEscan: BIKE [3]: 73

Compound: COc1cc(C(=O)N2CCC(N3CCN(C)CC3)CC2)ccc1Nc1ncc2c(n1)N(C)c1ccccc1C(=O)N2C [15 (LRRK2-IN-1)]
- KINOMEscan: PKNB(M.tuberculosis) [1]: 100
- KINOMEscan: LKB1 [2]: 96
- KINOMEscan: BIKE [3]: 100

Compound: COc1cc(C(=O)N2CCC(N3CCN(C)CC3)CC2)ccc1Nc1ncc2c(n1)N(C1CCCC1)c1ccccc1C(=O)N2C [Compound 25, 11-cyclopentyl-2-((2-methoxy-4-(4-(4-methylpiperazin-1-yl)piperidine-1-carbonyl)phenyl)amino)-5-methyl-5H-benzo[e]pyrimido[5,4-b][1,4]diazepin-6(11H)-one]
- KINOMEscan: PKNB(M.tuberculosis) [1]: 100
- KINOMEscan: LKB1 [2]: 82
- KINOMEscan: BIKE [3]: 93
